Test results as given in ChEMBL document CHEMBL3044925, “Synthesis of piperazino and morpholino derivatives of aryloxypropane with potential analgesic and possible antimigraine activities” (Med Chem Res, 2011).

Tests used:
Mus musculus [1] = test: […] activity in ip dosed Mus musculus MFI (mouse) assessed as inhibition of PBQ-induced writhing administered 1.5 hr prior to PBQ-challenge measured after 10 min; type: functional; settings: read-out: MED
Mus musculus [2] = test: Neurotoxicity against Mus musculus MFI (mouse) assessed as tremors at 75 mg/kg, ip; type: toxicity, organism-based; design: dose 75 mg/kg, route intraperitoneal; settings: in vivo
Mus musculus [3] = test: Neurotoxicity against Mus musculus MFI (mouse) assessed as irritability at 75 mg/kg, ip; type: toxicity, organism-based; design: dose 75 mg/kg, route intraperitoneal; settings: in vivo
Mus musculus [4] = test: Neurotoxicity against Mus musculus MFI (mouse) assessed as effect on respiration at 75 mg/kg, ip; type: toxicity, organism-based; design: dose 75 mg/kg, route intraperitoneal; settings: in vivo
Mus musculus [5] = test: Neurotoxicity against Mus musculus MFI (mouse) assessed as eye protrusion at 75 mg/kg, ip; type: toxicity, organism-based; design: dose 75 mg/kg, route intraperitoneal; settings: in vivo
Mus musculus [6] = test: Neurotoxicity against Mus musculus MFI (mouse) assessed as skeletal muscle incoordination at 75 mg/kg, ip; type: toxicity, organism-based, Muscle tissue; design: dose 75 mg/kg, route intraperitoneal; settings: in vivo
Mus musculus [7] = test: Neurotoxicity against Mus musculus MFI (mouse) assessed as hair erection at 75 mg/kg, ip; type: toxicity, organism-based; design: dose 75 mg/kg, route intraperitoneal; settings: in vivo
Mus musculus [8] = test: Neurotoxicity against Mus musculus MFI (mouse) assessed as tail erection at 75 mg/kg, ip; type: toxicity, organism-based; design: dose 75 mg/kg, route intraperitoneal; settings: in vivo
Mus musculus [9] = test: Neurotoxicity against Mus musculus MFI (mouse) assessed as epilepsy at 75 mg/kg, ip; type: toxicity, organism-based; design: dose 75 mg/kg, route intraperitoneal; settings: in vivo
Mus musculus [10] = test: Neurotoxicity against Mus musculus MFI (mouse) assessed as excitation at 75 mg/kg, ip; type: toxicity, organism-based; design: dose 75 mg/kg, route intraperitoneal; settings: in vivo
Mus musculus [11] = test: Neurotoxicity against Mus musculus MFI (mouse) assessed as tremors at 110 mg/kg, ip; type: toxicity, organism-based; design: dose 110 mg/kg, route intraperitoneal; settings: in vivo
Mus musculus [12] = test: Neurotoxicity against Mus musculus MFI (mouse) assessed as muscle twitching at 110 mg/kg, ip; type: toxicity, organism-based, Muscle tissue; design: dose 110 mg/kg, route intraperitoneal; settings: in vivo
Mus musculus [13] = test: Neurotoxicity against Mus musculus MFI (mouse) assessed as irritability at 110 mg/kg, ip; type: toxicity, organism-based; design: dose 110 mg/kg, route intraperitoneal; settings: in vivo
Mus musculus [14] = test: Neurotoxicity against Mus musculus MFI (mouse) assessed as eye protrusion at 110 mg/kg, ip; type: toxicity, organism-based; design: dose 110 mg/kg, route intraperitoneal; settings: in vivo
Mus musculus [15] = test: Neurotoxicity against Mus musculus MFI (mouse) assessed as effect on respiration at 110 mg/kg, ip; type: toxicity, organism-based; design: dose 110 mg/kg, route intraperitoneal; settings: in vivo
Mus musculus [16] = test: Neurotoxicity against Mus musculus MFI (mouse) assessed as skeletal muscle incoordination at 110 mg/kg, ip; type: toxicity, organism-based, Muscle tissue; design: dose 110 mg/kg, route intraperitoneal; settings: in vivo
Mus musculus [17] = test: Neurotoxicity against Mus musculus MFI (mouse) assessed as hair erection at 110 mg/kg, ip; type: toxicity, organism-based; design: dose 110 mg/kg, route intraperitoneal; settings: in vivo
Mus musculus [18] = test: Neurotoxicity against Mus musculus MFI (mouse) assessed as tail erection at 110 mg/kg, ip; type: toxicity, organism-based; design: dose 110 mg/kg, route intraperitoneal; settings: in vivo
Mus musculus [19] = test: Neurotoxicity in ip dosed Mus musculus MFI (mouse); type: toxicity, organism-based; settings: in vivo
Mus musculus [20] = test: Neurotoxicity against Mus musculus MFI (mouse) assessed as muscle twitching at 40 mg/kg, ip; type: toxicity, organism-based, Muscle tissue; design: dose 40 mg/kg, route intraperitoneal; settings: in vivo
Mus musculus [21] = test: Neurotoxicity against Mus musculus MFI (mouse) assessed as tremors at 40 mg/kg, ip; type: toxicity, organism-based; design: dose 40 mg/kg, route intraperitoneal; settings: in vivo
Mus musculus [22] = test: Neurotoxicity against Mus musculus MFI (mouse) assessed as irritability at 40 mg/kg, ip; type: toxicity, organism-based; design: dose 40 mg/kg, route intraperitoneal; settings: in vivo
Mus musculus [23] = test: Neurotoxicity against Mus musculus MFI (mouse) assessed as effect on respiration at 40 mg/kg, ip; type: toxicity, organism-based; design: dose 40 mg/kg, route intraperitoneal; settings: in vivo
Mus musculus [24] = test: Neurotoxicity against Mus musculus MFI (mouse) assessed as eye protrusion at 40 mg/kg, ip; type: toxicity, organism-based; design: dose 40 mg/kg, route intraperitoneal; settings: in vivo
Mus musculus [25] = test: Neurotoxicity against Mus musculus MFI (mouse) assessed as skeletal muscle incoordination at 40 mg/kg, ip; type: toxicity, organism-based, Muscle tissue; design: dose 40 mg/kg, route intraperitoneal; settings: in vivo
Mus musculus [26] = test: Neurotoxicity against Mus musculus MFI (mouse) assessed as hair erection at 40 mg/kg, ip; type: toxicity, organism-based; design: dose 40 mg/kg, route intraperitoneal; settings: in vivo
Mus musculus [27] = test: Neurotoxicity against Mus musculus MFI (mouse) assessed as tail erection at 40 mg/kg, ip; type: toxicity, organism-based; design: dose 40 mg/kg, route intraperitoneal; settings: in vivo
Mus musculus [28] = test: Neurotoxicity against Mus musculus MFI (mouse) assessed as epilepsy at 40 mg/kg, ip; type: toxicity, organism-based; design: dose 40 mg/kg, route intraperitoneal; settings: in vivo
Mus musculus [29] = test: Neurotoxicity against Mus musculus MFI (mouse) assessed as excitation at 40 mg/kg, ip; type: toxicity, organism-based; design: dose 40 mg/kg, route intraperitoneal; settings: in vivo
Mus musculus [30] = test: Neurotoxicity against Mus musculus MFI (mouse) assessed as muscle twitching at 75 mg/kg, ip; type: toxicity, organism-based, Muscle tissue; design: dose 75 mg/kg, route intraperitoneal; settings: in vivo
Mus musculus [31] = test: Neurotoxicity against Mus musculus MFI (mouse) assessed as epilepsy at 110 mg/kg, ip; type: toxicity, organism-based; design: dose 110 mg/kg, route intraperitoneal; settings: in vivo
Mus musculus [32] = test: Neurotoxicity against Mus musculus MFI (mouse) assessed as excitation at 110 mg/kg, ip; type: toxicity, organism-based; design: dose 110 mg/kg, route intraperitoneal; settings: in vivo
Mus musculus [33] = test: […] activity in Mus musculus MFI (mouse) assessed as inhibition of PBQ-induced writhing at 40 mg/kg, ip administered 1.5 hr prior to PBQ-challenge measured after 10 min relative to aspirin; type: functional; settings: route intraperitoneal
Mus musculus [34] = test: […] activity in Mus musculus MFI (mouse) assessed as inhibition of PBQ-induced writhing at 75 mg/kg, ip administered 1.5 hr prior to PBQ-challenge measured after 10 min relative to aspirin; type: functional; settings: route intraperitoneal
Mus musculus [35] = test: […] activity in Mus musculus MFI (mouse) assessed as inhibition of PBQ-induced writhing at 110 mg/kg, ip administered 1.5 hr prior to PBQ-challenge measured after 10 min relative to aspirin; type: functional; settings: route intraperitoneal

With `CC(CN1CCN(C)CC1)Oc1c(Br)cccc1Br.O=C(O)C(=O)O` (racemic) the minimal effective dose (Mus musculus [1]) was 40 mg/kg, the Activity (Mus musculus [2]) was “Toxic” and the Activity (Mus musculus [3]) was “Toxic”. For the same molecule, the Activity (Mus musculus [4]) was “Toxic”, the Activity (Mus musculus [5]) was “Toxic” and the Activity (Mus musculus [6]) was “Toxic”. The Activity (Mus musculus [7]) was “Toxic”, the Activity (Mus musculus [8]) was “Toxic” and the Activity (Mus musculus [9]) was “Toxic”. The Activity (Mus musculus [10]) was “Toxic”, the Activity (Mus musculus [11]) was “Toxic” and the Activity (Mus musculus [12]) was “Toxic”. For the same molecule, the Activity (Mus musculus [13]) was “Toxic”, the Activity (Mus musculus [14]) was “Toxic” and the Activity (Mus musculus [15]) was “Toxic”. The Activity (Mus musculus [16]) was “Toxic”, the Activity (Mus musculus [17]) was “Toxic” and the Activity (Mus musculus [18]) was “Toxic”. The MTC (Mus musculus [19]) was 75 mg/kg, the Activity (Mus musculus [20]) was “Toxic” and the Activity (Mus musculus [21]) was “Toxic”. For the same molecule, the Activity (Mus musculus [22]) was “Toxic”, the Activity (Mus musculus [23]) was “Toxic” and the Activity (Mus musculus [24]) was “Toxic”. The Activity (Mus musculus [25]) was “Toxic”, the Activity (Mus musculus [26]) was “Toxic” and the Activity (Mus musculus [27]) was “Toxic”. For the same molecule, the Activity (Mus musculus [28]) was “Toxic”, the Activity (Mus musculus [29]) was “Toxic” and the Activity (Mus musculus [30]) was “Toxic”. For the same molecule, the Activity (Mus musculus [31]) was “Toxic”, the Activity (Mus musculus [32]) was “Toxic” and the inhibition in vivo at 40 mg/kg (Mus musculus [33]) was 12.5%. The inhibition in vivo at 75 mg/kg (Mus musculus [34]) was 37.5% and the inhibition in vivo at 110 mg/kg (Mus musculus [35]) was 100%.
